Assay results published in patent US20150309047A1, “CIRCULATING PROTEOLYTIC BIOMARKERS OF CELL DEATH AND METHODS FOR THE USE THEREOF” (The Regents of the University of California, priority 2014, published 2015).
Residues, ends and D or L forms follow the SMILES beside them. *: point of attachment. Cbz = O=C(OCc1ccccc1)*; CH2F = FC*

How the values were obtained:
Assay type in all cases: cell-based, human
Jurkat cells [1] = test: Immunoblotting of caspase substrate proteolysis during apoptosis in Jurkat cells
Protocol: Jurkat cells at a density of 1×10^6 cells/ml were treated with etoposide (50 μM) for 0, 2, 4, 8, 12, and 24 hours prior to harvesting. Harvested cells were pelleted at 2,000×g and 25° C. for 5 minutes, washed twice with phosphate buffered saline, and lysed at a concentration of 2×10^7 cells/ml in 1.0% SDS, phosphate buffered saline, 100 μM Z-VAD-FMK, 100 μM E-64, 1 mM PMSF, 1 mM AEBSF, 5 mM EDTA, and 10 mM sodium butyrate. Whole cell lysates were sonicated to shear genomic DNA, normalized to a protein concentration of approximately 2 mg/ml, as determined by BCA assay (Pierce). Cell lysates for each apoptotic timepoint were then analyzed by SDS-PAGE and Western blot. Mouse monoclonal anti-caspase-3 (#9668) and rabbit polyclonal anti-HDAC3 (#2632) antibodies were purchased from Cell Signaling Technology. Mouse monoclonal anti-DFF45 (#611036) antibody was purchased from BD Transduction Laboratories. Goat polyclonal anti-N-Cor (#sc-1611) and rabbit polyclonal anti-HDAC7 (#sc-11412) antibodies were purchased from Santa Cruz Biotechnology. Rabbit polyclonal anti-TBLR1 (#A300-408A), rabbit polyclonal anti-SHARP (#A301-119A), and rabbit polyclonal anti-RBBP7 (#A300-959A) antibodies were purchased from Bethyl Laboratories. Rabbit polyclonal anti-SMRTe (#06-891) antibody was purchased from Millipore. Western blots were imaged using SuperSignal West Femto Substrate (Pierce) with a FluorChem SP imager (Alpha Innotech). DNA fragmentation of whole cell DNA was analyzed by agarose gel with the Apoptotic DNA Ladder Kit (Roche).

MM1.S = test: N-terminal labeling and MS of proteolytic fragments released into media from drug-treated cultured cells; conditions: MM1.S treated with bortezomib for at least 21 h
Protocol: (§1) MM1.S and SU-DHL-8 lines were obtained from ATCC; MOLM-13 from DMSZ. Cell lines were grown in RPMI-1640 media without fetal bovine serum for 24 h prior to drug treatment at indicated doses. After treatment, cells and debris were separated from media by low speed (800×g, 5 min), followed by high speed (24,000×g, 1 h) centrifugation. Total protein in media was precipitated with trichloroacetic acid, resuspended in 8M guanidine HCl, then subjected to N-terminal labeling as described (Wiita A P, et al. (2013) Global cellular response to chemotherapy-induced apoptosis. Elife 2:e01236).
(§2) Three cell lines treated with different drugs were evaluated: i) MM1.S, derived from multiple myeloma and treated with the proteasome inhibitor bortezomib, ii) MOLM-13, derived from acute myeloid leukemia and treated with the nucleoside analog cytarabine, and iii) SU-DHL-8, derived from diffuse large B-cell lymphoma and treated with the DNA-damaging agent doxorubicin. All of these conditions reflect the diagnoses of patients in the discovery cohort combined with clinically used chemotherapeutics. Under each condition the cells were either treated with drug or mock-treated for at least 21 h. […] After removing whole cells, proteins in the media were precipitated with trichloroacetic acid and then subjected to N-terminal labeling by subtiligase. FBS-free media was used in these experiments to avoid contamination from normal bovine plasma proteins.

MOLM-13 = test: as above; conditions: MOLM-13 treated with cytarabine for at least 21 h
Protocol: as §1, §2

Jurkat cells [2] = test: Subtiligase N-terminal labeling and LC/MS/MS degradomic analysis of etoposide-treated apoptotic Jurkat cells; conditions: Jurkat cells treated with etoposide
Protocol: Jurkat clone E6-1 (ATCC) cells were grown in RPMI-1640 supplemented with 10% fetal bovine serum, sodium pyruvate, and antibiotics. Normal cells were harvested for experiments at a density of 1×10^6 cells/ml. For apoptotic samples, cells at a density of 1×10^6 cells/ml were treated with etoposide (50 μM) for 12 hours prior to harvesting. Harvested cells (0.1 to 1 billion) were pelleted at 2,000×g and 25° C. for 5 minutes, washed twice with phosphate buffered saline, and lysed at a typical concentration of 2×10^8 cells/ml in 1.0% Triton X-100, 100 mM BICINE pH 8.0, 100 μM Z-VAD-FMK, 100 μM E-64, 1 mM PMSF, 1 mM AEBSF, and 5 mM EDTA. Cell lysates were incubated at room temperature for 1 hour to allow complete inhibition of endogenous protease and esterase activity, and centrifuged at 21,000×g and 4° C. for 15 minutes to pellet insoluble material. Clarified supernatant was immediately used in ligation reactions at a protein concentration of approximately 20 mg/ml, as determined by Bradford assay (Bio-Rad).
Subtiligase (1 μM), biotinylated peptide ester (1 mM), and DTT (2 mM) were added to either control or apoptotic cell lysate. Ligation reactions were typically left to proceed at room temperature for 60 minutes. […]

SU-DHL-8 = test: N-terminal labeling and MS of proteolytic fragments released into media from drug-treated cultured cells; conditions: SU-DHL-8 treated with doxorubicin for at least 21 h
Protocol: as §1, §2

[3] = Jurkat cells, 50 μM etoposide, immunoblot

COC(=O)C[C@H](NC(=O)[C@H](C)NC(=O)[C@@H](NC(=O)OCc1ccccc1)C(C)C)C(=O)CF [Z-VAD(OMe)-fmk] (Cbz-Val-Ala-Asp(OMe)-CH2F)
cleavage of representative substrates HDAC7, Ku80, RCOR2, TBLR1, and UBP36 (Jurkat cells [1]; etoposide-treated Jurkat cells with caspase inhibitor): blocked

CC(C)C[C@H](NC(=O)[C@H](Cc1ccccc1)NC(=O)c1cnccn1)B(O)O [bortezomib]
apoptosis of treated cells (MM1.S): at least 50%

Nc1ccn([C@@H]2O[C@H](CO)[C@@H](O)[C@@H]2O)c(=O)n1 [cytarabine]
apoptosis of treated cells (MOLM-13): at least 50%

COc1cc([C@@H]2c3cc4c(cc3[C@@H](O[C@@H]3O[C@@H]5CO[C@@H](C)O[C@H]5[C@H](O)[C@H]3O)[C@H]3COC(=O)[C@H]23)OCO4)cc(OC)c1O [etoposide]
N-termini identified in apoptotic cells derived from P1 aspartate cleavages (Jurkat cells [2]; large-scale (2D LC/MS/MS) experiments): 43% | N-termini identified in apoptotic cells derived from P1 aspartate cleavages (Jurkat cells [2]; small-scale (1D LC/MS/MS) experiments): 43% | proteolysis of CM, Ku80, LCOR, and RBBP7 (time courses) (Jurkat cells [1]; [3]): partial cleavage | proteolysis of HDAC6, HDAC7, N-CoR, RCOR2, SHARP, TBLR1, UBPS, and UBP36 (time courses) (Jurkat cells [1]; [3]): full cleavage

COc1cccc2c1C(=O)c1c(O)c3c(c(O)c1C2=O)C[C@@](O)(C(=O)CO)C[C@@H]3O[C@H]1C[C@H](N)[C@H](O)[C@H](C)O1 [doxorubicin]
apoptosis of treated cells (SU-DHL-8): at least 50%
